The record followed here is ChEMBL document CHEMBL5260811, “Drug development against tuberculosis: Impact of alkaloids” (Eur J Med Chem, 2017).

The term MIC denotes the lowest concentration that inhibits growth of the organism. One may read the IC50 as the point on the concentration scale where inhibition reaches its midpoint. A high value points to weaker potency. One may read the inhibition as the drop in the measured response relative to a control, in per cent. Higher therefore signals a response far below the control.

The subject of assay [1] is Mycolicibacterium smegmatis. Kind of assay: Antimycobacterial activity against Mycobacterium smegmatis. As to conditions: Mycolicibacterium smegmatis. Format: functional.
Assay [2] deals with Mycobacterium tuberculosis. Kind of assay: Antimycobacterial activity against Mycobacterium tuberculosis H37Ra by green fluorescent protein microplate assay. Format: functional.
For assay [3], the system named is Mycobacterium sp. The experiment in a line: Antimycobacterial activity against Mycobacterium sp. In kind it is functional.
In assay [4] the test system is Mycobacterium tuberculosis. Kind of assay: Antimycobacterial activity against Mycobacterium tuberculosis. As to conditions: Mycobacterium tuberculosis. In kind it is functional.
The subject of assay [5] is Mycobacterium tuberculosis. Kind of assay: Antimycobacterial activity against Mycobacterium tuberculosis H37Ra. In kind it is functional.
Assay [6] deals with Mycolicibacterium vaccae. Kind of assay: Antimycobacterial activity against Mycobacterium vaccae. Format: functional.
Assay [7] concerns Mycobacterium tuberculosis. The experiment in a line: Antimycobacterial activity against Mycobacterium tuberculosis H37Rv by microplate alamar blue assay. In kind it is functional. In general terms: The colour change of resazurin is a common sign of viable cells or microbes.
Assay [8] deals with Mycobacterium tuberculosis. The experiment in a line: Antimycobacterial activity against MDR/XDR Mycobacterium tuberculosis. Format: functional.
The test system of assay [9] is Mycobacterium tuberculosis. The experiment in a line: Antimycobacterial activity against Mycobacterium tuberculosis H37Rv. In kind it is functional.
Assay [10] has as its system Mycobacterium intracellulare. Kind of assay: Antimycobacterial activity against Mycobacterium intracellulare. In kind it is functional, organism-based.
The test system of assay [11] is Mycobacterium. Kind of assay: Antimycobacterial activity against Mycobacterium. Format: functional.
Assay [12] concerns Mycolicibacterium fortuitum. Kind of assay: Antimycobacterial activity against Mycobacterium fortuitum. In kind it is functional.
Assay [13] relates to Mycobacterium avium. Kind of assay: Antimycobacterial activity against Mycobacterium avium. In kind it is functional.
Assay [14] concerns Mycobacterium tuberculosis. The experiment in a line: Antimycobacterial activity against Mycobacterium tuberculosis in presence of banegasine. In kind it is functional.
The test system of assay [15] is Mycobacterium avium. Kind of assay: Antimycobacterial activity against Mycobacterium avium in presence of banegasine. Format: functional.
In assay [16] the test system is Mycolicibacterium smegmatis. The experiment in a line: Antimycobacterial activity against Mycobacterium smegmatis in presence of banegasine. In kind it is functional.
The test system of assay [17] is Mycobacterium tuberculosis. Kind of assay: Antimycobacterial activity against Mycobacterium tuberculosis H37Rv at 50 ug/ml relative to control. In kind it is functional.
For assay [18], the system named is Mycolicibacterium phlei. The experiment in a line: Antimycobacterial activity against Mycobacterium phlei. Format: functional.
Assay [19] has as its system Mycobacterium tuberculosis. Kind of assay: Antimycobacterial activity against Mycobacterium tuberculosis Rv3547. Format: functional.

Structures are written as SMILES. Values after ≈ are worked out from the molar mass of the structure shown. Some results are limits rather than exact numbers.

For `Nc1ccccc1-c1c[nH]c(C(=O)O)c1`, in [1], the MIC was determined as 0.5 µg/mL (≈ 2.47 µM).

As to `O=Cc1cc2c3ccc(O)cc3[nH]c2c2ccoc12`, in assay [2], inhibition of growth (MIC) required 25 µg/mL (≈ 99.5 µM).

Consider `CC[C@H]1CN(C)[C@H]2Cc3c([nH]c4ccccc34)C(=O)C[C@@H]1[C@@H]2C(=O)OC`, for which, in [3], inhibition of growth (MIC) required 128 µg/mL (≈ 361 µM).

In [3], `CC[C@H]1C[C@H]2C[C@H]3c4[nH]c5ccc(OC)cc5c4CCN(C2)C13` yielded an MIC of 50 µg/mL (≈ 161 µM).

With `COc1ccc2c(c1)[nH]c1cc(O)c(C=O)cc12`, the MIC in assay [4] was 100 µg/mL (≈ 415 µM); in assay [5], 25 µg/mL (≈ 104 µM).

Compound `COc1cnc2c3c(nccc13)C(=O)c1ccccc1-2` gave an MIC in [3] of 1.56 µg/mL (≈ 5.95 µM).

Take `CC[C@H]1C[C@H]2C[N@]3CCc4c([nH]c5ccc(OC)cc45)[C@](C(=O)OC)(C2)[C@H]13`: 50 µg/mL (≈ 136 µM) was the least that counted as inhibitory in assay [3] (MIC).

In the case of `CC/C=C(\C)C[C@H](C)C[C@H](C)/C(O)=C1/C(=O)N[C@@H]([C@@H](O)c2ccc(O)cc2)C1=O`, in assay [6], the lowest concentration to inhibit growth (MIC) was 6.25 µg/mL (≈ 15.6 µM).

In assay [7], `C=C[C@H]1C=C[C@H]2[C@@H]3C[C@H](C)CC[C@H]3[C@@H]3Oc4ccc(cc4)C[C@]4(O)NC(=O)[C@H](C(=O)[C@@H]1[C@H]23)C4N1C(=O)[C@H]2C(=O)[C@H]3[C@@H](C=C)C=C[C@H]4[C@@H]5C[C@H](C)CC[C@H]5[C@H](Oc5ccc(cc5)C[C@@H]2C1=O)[C@@H]43` (stereo partly drawn) [HIRSUTELLONE F] came in with an MIC of 3.12 µg/mL (≈ 3.5 µM).

In assay [8], `COc1ccc2c3c(c4cc(OC)c(OC)cc4c2c1)CN1CCCC1C3` (stereo not drawn) [(+/-)-DEOXYTYLOPHORININE] gave an MIC of 6.25 µg/mL (≈ 17.2 µM).

In [9], `O=C1CCCN2[C@@H](CC1)C[C@]13CN4CCCC/C=C\CC[C@](O)(C=C(c5nccc6c5[nH]c5c(O)cccc56)[C@@H]1CC4)[C@H]23` registered an MIC of 0.4 µg/mL. The compound further yielded an IC50 in assay [10] of 3.5 µg/mL (≈ 6.03 µM).

Compound `CC(C)=CCc1c(O)c(C=O)cc2c1[nH]c1cc(O)ccc12` [7-HYDROXYHEPTAPHYLLINE] yielded an MIC in assay [2] of 25 µg/mL (≈ 84.6 µM).

Turning to `CCCC1CCC2(CC1)SCC(=O)N2NC(=O)c1[nH]c2ccc(F)cc2c1-c1ccccc1` (stereo not drawn), the MIC in assay [9] was 6.25 µg/mL.

`COC1=C(Br)[C@@H](O)[C@]2(C=C1Br)CC(C(=O)NC[C@@H](O)COc1c(Br)cc(C(O)CNC(=O)C3=NO[C@@]4(C=C(Br)C(OC)=C(Br)[C@H]4O)C3)cc1Br)=CO2` (stereo partly drawn) came in with an MIC in assay [11] of 7.9 µg/mL (≈ 7.1 µM).

As for `CC1=CCC[C@H](C)[C@@]1(C)CC/C(C)=C/CC/C(C)=C/Cn1c[n+](C)c2ncnc(N)c21`, the MIC in assay [9] was determined as 3.13 µg/mL.

In the case of `Oc1cccc2c1[nH]c1c(C3=C[C@@]4(O)CC/C=C\CCCCN5CCC3[C@]3(C[C@@H]6/C=C\CCCCN6[C@H]34)C5)nccc12` (stereo partly drawn), it took 0.4 µg/mL to inhibit growth in assay [9] (MIC). The compound further showed an IC50 in [10] of 3.5 µg/mL (≈ 6.2 µM).

`O=C([C@H]1[C@H](/C=C/c2ccc3c(c2)OCO3)[C@H](c2ccc3c(c2)OCO3)C=C[C@H]1C(=O)N1CCCCC1)N1CCCCC1`: the MIC in [5] is 12.5 µg/mL (≈ 21.9 µM).

With `CCCCCCc1cc(Cl)c(O)c(C(=O)c2c[nH]c(Cl)c2Cl)c1O`, the MIC in assay [12], in assay [1] and in assay [6] was 0.05 µg/mL (≈ 0.128 µM) each time.

Take `CC[C@H]1C=CCC[C@@]2(C[C@@H]3CC[C@@H]4[C@H](C(=O)OCCCCCCCCCCCCCCCC(=O)N(CCCN)CC(O)CCN)[C@]5(CCC[C@@H](C)O5)N=C(N2)N34)O1` (stereo partly drawn): in [7], the lowest concentration to inhibit growth (MIC) was 46.5 µg/mL (≈ 58 µM).

The compound `CN1C=NC2=C(N)NCNC21` (stereo not drawn) showed an MIC in assay [9] of 6.25 µg/mL.

Take `O=[N+]([O-])c1c(Cl)cccc1-c1c[nH]cc1Cl` [PYRROLNITRIN]: the MIC in assay [4], in [13] and in [1] was 4 µg/mL (≈ 15.6 µM) throughout. The IC in assay [14], in [15] and in assay [16] was 0.075 µg/mL in each case.

In the case of `COc1ccc2cc3[n+](cc2c1OC)CCc1cc2c(cc1-3)OCO2.[Cl-]` [BERBERINE CHLORIDE], the MIC was 25 µg/mL in [4], 0.78 µg/mL in [1] and 0.78 µg/mL in assay [10].

In assay [17], `CC[C@@H]1[C@@H]2CCN3CC[C@@]4(C(=C2C(=O)OC)Nc2ccccc24)[C@@H]13` displayed an inhibition at 50 µg/mL of 50%.

For `C=C[C@@]1(C)C(Cl)C[C@@H]2C(C)(C)c3cccc4[nH]c5c(c34)[C@@]2(O)[C@]1(C#N)[C@@]1(CO1)C5(C)C` (stereo partly drawn), in assay [9], the MIC was 2 µM.

As for `O=C1c2c(O)ccnc2-c2nccc3c2c1nc1ccccc13`, the MIC in assay [9] is above 42 µM.

With `COc1cc2c(cc1O)CC[n+]1cc3c(OC)c(OC)ccc3cc1-2` [JATRORRHIZINE], the MIC in [3] was below 100 µg/mL.

In [11], `COC1=C(Br)[C@@H](O)[C@]2(C=C1Br)CC(C(=O)NCCCOc1c(Br)cc(C(O)CNC(=O)C3=NO[C@@]4(C=C(Br)C(OC)=C(Br)[C@H]4O)C3)cc1Br)=CO2` (stereo partly drawn) returned an MIC of 8 µg/mL (≈ 7.29 µM).

Turning to `O=C1C=CC2=NC=CC3c4cccc(O)c4N1C23` (stereo not drawn), the MIC in [1] and in [18] was 8 µg/mL (≈ 33.6 µM) in each case.

For the compound `COC(=O)[C@@]12COCC=C3CN(CC[C@@H]31)Cc1c2[nH]c2ccccc12`, at 50 µg/mL the inhibition in assay [17] was 50%.

Turning to `C[C@@]1(COc2ccc(N3CCC(Oc4ccc(OC(F)(F)F)cc4)CC3)cc2)Cn2cc([N+](=O)[O-])nc2O1`, in [19], the MIC stood at 0.006 µg/mL (≈ 0.0112 µM).
